The source of these data is patent publication US20250188068A1, “AMIDO CYCLOPROPYL DERIVATIVES AS LPA RECEPTOR INHIBITORS” (CHIESI FARMACEUTICI S.P.A., priority 2022, published 2025).

Some results are limits rather than exact numbers.

A word on the IC50: it is the midpoint of a concentration-inhibition curve.

In the first series the target is T1, human recombinant LPA1 expressed in CHO cells (Homo sapiens, UniProt Q92633).
T1 construct: expressed in transfected cells; host or cells: CHO cells (CHO-hLPA1 cell line)
T1 sequence (Q92633 whole entry): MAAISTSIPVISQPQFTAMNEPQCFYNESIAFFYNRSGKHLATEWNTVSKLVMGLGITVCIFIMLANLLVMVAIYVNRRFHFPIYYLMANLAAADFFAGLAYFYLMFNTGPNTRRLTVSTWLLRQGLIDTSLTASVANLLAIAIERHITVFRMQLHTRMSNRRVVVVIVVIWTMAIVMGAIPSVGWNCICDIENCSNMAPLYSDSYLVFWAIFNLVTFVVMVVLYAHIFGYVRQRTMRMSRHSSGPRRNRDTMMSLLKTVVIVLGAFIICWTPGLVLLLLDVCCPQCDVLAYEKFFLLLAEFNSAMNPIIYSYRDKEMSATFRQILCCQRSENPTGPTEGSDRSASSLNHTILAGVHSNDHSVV
Briefly: FLIPR calcium mobilization assay, LPA1 antagonism in CHO-hLPA1 cells. The series is classed as cell-based. To be noted: inhibition of LPA EC80 Ca2+ response, 30 min pre-incubation, range of activity. The protocol:
The effectiveness of compounds of the present invention as LPA1 antagonist can be determined at the human recombinant LPA1 expressed in CHO cells, using a FLIPR assay in 384 well format.
CHO-hLPA1 cell lines are cultured in a humidified incubator at 5% CO2 in DMEM/F-12 (1:1) MIXTURE with 2 mM Glutamax, supplemented with 10% of Foetal Bovine Serum, 1 mM Sodium Pyruvate, 11 mM Hepes and 1× Penicillin/Streptomycin. CHO hLPA1 cells are seeded into black walled clear-bottom 384-well plates (#781091, Greiner Bio-One GmbH) at a density of 7,500 cells per well in 50 μl culture media and grown overnight in a 37° C. humidified CO2-incubator. Serial dilutions (1:3 or 1:4, 11 points CRC) of compounds are performed in 100% DMSO at 200× the final concentration. The compounds are diluted 1:50 prior to the experiment with Assay Buffer (20 mM HEPES, 145 mM NaCl, 5 mM KCl, 5.5 mM glucose, 1 mM MgCl2 and 2 mM CaCl2), pH 7.4 containing 0.01% Pluronic F-127) to obtain a solution corresponding to […] the final concentration in the assay (4×, 2% DMSO). The final concentration of DMSO in the assay will be 0.5% in each well. Medium is removed by aspiration and cells are then incubated with 30 μl of a loading solution containing 5 μM of the cytoplasmic Ca2+ indicator Cal-520 AM in Assay Buffer containing 2.5 mM probenecid for 30 min at 37° C. incubator (cell loading). The loaded cell plates are transferred into the FLIPR instrument and calcium responses are monitored during the on-line addition protocols. For testing of compounds, after the cell loading, 10 μl/well of 4× antagonists' solution was added onto the cells. After 30 min pre-incubation (at 37° C.), 10 μl/well of 5× concentrated LPA EC80 was added and Ca2+ mobilization responses was followed during the on-line addition protocol. Intracellular peak fluorescence values subtracted by baseline fluorescence are exported and analysed to determine IC50 values, respectively. The calcium response is expressed as percentage of the maximal inhibition of the EC80 agonist response.
The raw data obtained in unstimulated controls (DMSO, no LPA) are set as “100% inhibition”, while the raw data obtained in negative controls, i.e. in the absence of compounds and stimulating with LPA EC80, are set as “0% inhibition”.
The raw data (peak height expressed as relative fluorescence units) are normalized and transformed into “percent of inhibition”. Curve fitting and pIC50 (−Log IC50) estimations are carried out using a four-parameter logistic model using XLfit Software.
As for `Cc1nc(-c2onc(C)c2NC(=O)O[C@H](C)c2ccccc2Cl)ccc1NC(=O)C1C(c2noc(=O)[nH]2)C1(F)F` (stereo partly drawn) [Compound 42, (R)-1-(2-chlorophenyl)ethyl (5-(5-(2,2-difluoro-3-(5-oxo-4,5-dihydro-1,2,4-oxadiazol-3-yl)cyclopropane-1-carboxamido)-6-methylpyridin-2-yl)-3-methylisoxazol-4-yl)carbamate], the IC50 is less than 50 nM. Regarding `Cc1nc(-c2onc(C)c2NC(=O)O[C@H](C)c2ccccc2Cl)ccc1NC(=O)[C@@H]1[C@@H](c2n[nH]c(=S)n2C)C1(F)F` [Compound 44, (R)-1-(2-chlorophenyl)ethyl (5-(5-((1S,3S)-2,2-difluoro-3-(4-methyl-5-thioxo-4,5-dihydro-1H-1,2,4-triazol-3-yl)cyclopropane-1-carboxamido)-6-methylpyridin-2-yl)-3-methylisoxazol-4-yl)carbamate], the IC50 is 50 to 100 nM. As to `Cc1nc(-c2onc(C)c2CNc2nccc(C3CCCCC3)n2)ccc1NC(=O)[C@@H]1[C@@H](C(=O)O)C1(F)F` (racemic) [Compound 18, 3-((6-(4-(((4-cyclohexylpyrimidin-2-yl)amino)methyl)-3-methylisoxazol-5-yl)-2-methylpyridin-3-yl)carbamoyl)-2,2-difluorocyclopropane-1-carboxylic acid, mix of Trans diastereomers], the IC50 was less than 50 nM. For the compound `C[C@@H](OC(=O)Nc1cn(C)nc1-c1ccc(NC(=O)[C@@H]2[C@@H](C(=O)O)C2(F)F)cc1)c1ccccc1Cl` [Compound 38, (1S,3S)-3-((4-(4-((((R)-1-(2-chlorophenyl)ethoxy)carbonyl)amino)-1-methyl-1H-pyrazol-3-yl)phenyl)carbamoyl)-2,2-difluorocyclopropane-1-carboxylic acid], the IC50 lay within 100 to 200 nM.

`Cc1noc(-c2ccc(N(C)C(=O)C3C(C(=O)O)C3(F)F)cc2)c1NC(=O)O[C@H](C)c1ccccc1Cl` (single isomer, unassigned) [Compound 8]: the IC50 lay in the range of 100 to 200 nM. The same measure, in the same setting: the figure for `Cc1nc(-c2sccc2NC(=O)O[C@H](C)c2ccccc2Cl)ccc1NC(=O)C1C(C(=O)O)C1(F)F` (single isomer, unassigned; diastereomer 2) [Compound 30] is 100 to 200 nM; for `Cc1nc(-c2onc(C)c2CNc2nccc(-c3ccco3)n2)ccc1NC(=O)[C@@H]1[C@@H](C(=O)O)C1(F)F` [Compound 22, (1S,3S)-2,2-difluoro-3-((6-(4-(((4-(furan-2-yl)pyrimidin-2-yl)amino)methyl)-3-methylisoxazol-5-yl)-2-methylpyridin-3-yl)carbamoyl)cyclopropane-1-carboxylic acid] it is 100 to 200 nM. On the same count and under the same terms, the result for `Cc1nc(-c2onc(C)c2NC(=O)O[C@H](C)c2ccccc2Cl)ccc1NC(=O)C1C(c2nnn[nH]2)C1(F)F` (mixture of isomers) [Compound 14, (R)-1-(2-chlorophenyl)ethyl (5-(5-(2,2-difluoro-3-(1H-tetrazol-5-yl)cyclopropane-1-carboxamido)-6-methylpyridin-2-y1)-3-methylisoxazol-4-yl)carbamate, mix of Trans diastereomers] reads less than 50 nM.

A further series has as its system Caco-2 cells monolayers (human colon carcinoma cell line).
Experiment: not given
As to conditions: Caco-2, 60 min, 10 μM, pH 7.4.
As for `Cc1nc(-c2onc(C)c2NC(=O)O[C@H](C)c2ccccc2Cl)ccc1NC(=O)C1C(c2noc(=O)[nH]2)C1(F)F` (stereo partly drawn) [Compound 42, (R)-1-(2-chlorophenyl)ethyl (5-(5-(2,2-difluoro-3-(5-oxo-4,5-dihydro-1,2,4-oxadiazol-3-yl)cyclopropane-1-carboxamido)-6-methylpyridin-2-yl)-3-methylisoxazol-4-yl)carbamate], the “Passive Permeability” value was no more than 0.5 ×10⁻⁶ cm/s.
